Data reported in ChEMBL document CHEMBL1201862, “PubChem BioAssay data set” (2004).
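Results reflect a 48-hour exposure of cells in 96-well plates to compound at five concentrations. GI50 marks 50% less growth.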 Calls of active or inactive are those of the source. No stated cut-off is given here; in the data, active = GI50 up to about 1.1 µM and inactive = higher.

Key:
Assay in all cases: DTP human tumour cell line panel, 48 h
OVCAR-4 = test system: OVCAR-4
RPMI-8226 = test system: RPMI-8226
HCT-116 = test system: HCT-116
SK-OV-3 = test system: SK-OV-3
SF-268 = test system: SF-268
MOLT-4 = test system: MOLT-4
HOP-62 = test system: HOP-62
EKVX = test system: EKVX
SNB-19 = test system: SNB-19
KM12 = test system: KM12
HCT-15 = test system: HCT-15
NCI-H522 = test system: NCI-H522
HOP-92 = test system: HOP-92
NCI-H226 = test system: NCI-H226
SN12C = test system: SN12C
UACC-62 = test system: UACC-62
U-251 = test system: U-251
NCI-H460 = test system: NCI-H460
SW-620 = test system: SW-620
MDA-MB-231 = test system: MDA-MB-231
MDA-MB-435 = test system: MDA-MB-435
MCF7 = test system: MCF7
OVCAR-3 = test system: OVCAR-3
HCC 2998 = test system: HCC 2998
HL-60 = test system: HL-60
MDA-N = test system: MDA-N
PC-3 = test system: PC-3
A498 = test system: A498
SF-295 = test system: SF-295
SR = test system: SR
786-0 = test system: 786-0
IGROV-1 = test system: IGROV-1
SK-MEL-2 = test system: SK-MEL-2
NCI-H23 = test system: NCI-H23
K562 = test system: K562
BT-549 = test system: BT-549
COLO 205 = test system: COLO 205
SK-MEL-28 = test system: SK-MEL-28
UACC-257 = test system: UACC-257
HT-29 = test system: HT-29
SK-MEL-5 = test system: SK-MEL-5
OVCAR-5 = test system: OVCAR-5
LOX IMVI = test system: LOX IMVI
CCRF-CEM = test system: CCRF-CEM
TK-10 = test system: TK-10
ACHN = test system: ACHN
DU-145 = test system: DU-145
RXF 393 = test system: RXF 393
UO-31 = test system: UO-31
Malme-3M = test system: Malme-3M
T47D = test system: T47D
OVCAR-8 = test system: OVCAR-8
CAKI-1 = test system: CAKI-1
NCI/ADR-RES = test system: NCI/ADR-RES
A549 = test system: A549
SF-539 = test system: SF-539
Hs-578T = test system: Hs-578T
M14 = test system: M14
SNB-75 = test system: SNB-75

## [N-]=[N+]=CC(=O)OC(CCl)CCl
OVCAR-4
  GI50: > 100 µM (inactive)
RPMI-8226
  GI50: > 100 µM (inactive)
HCT-116
  GI50: > 100 µM (inactive)
SK-OV-3
  GI50: > 100 µM (inactive)
SF-268
  GI50: > 100 µM (inactive)
MOLT-4
  GI50: > 100 µM (inactive)
HOP-62
  GI50: > 100 µM (inactive)
EKVX
  GI50: > 100 µM (inactive)
SNB-19
  GI50: > 100 µM (inactive)
KM12
  GI50: > 100 µM (inactive)
HCT-15
  GI50: > 100 µM
NCI-H522
  GI50: > 100 µM (inactive)
HOP-92
  GI50: > 100 µM (inactive)
NCI-H226
  GI50: > 100 µM (inactive)
SN12C
  GI50: > 100 µM (inactive)
UACC-62
  GI50: > 100 µM (inactive)
U-251
  GI50: > 100 µM (inactive)
NCI-H460
  GI50: 25.2 µM (inactive)
SW-620
  GI50: > 100 µM (inactive)
MDA-MB-231
  GI50: > 100 µM (inactive)
MDA-MB-435
  GI50: > 100 µM (inactive)
MCF7
  GI50: > 100 µM (inactive)
OVCAR-3
  GI50: > 100 µM (inactive)
HCC 2998
  GI50: > 100 µM (inactive)
HL-60
  GI50: > 100 µM (inactive)
MDA-N
  GI50: > 100 µM (inactive)
PC-3
  GI50: > 100 µM (inactive)
A498
  GI50: > 100 µM (inactive)
SF-295
  GI50: > 100 µM (inactive)
SR
  GI50: 37.5 µM (inactive)
786-0
  GI50: > 100 µM (inactive)
IGROV-1
  GI50: > 100 µM (inactive)
SK-MEL-2
  GI50: > 100 µM (inactive)
NCI-H23
  GI50: > 100 µM (inactive)
K562
  GI50: > 100 µM (inactive)
BT-549
  GI50: > 100 µM (inactive)
COLO 205
  GI50: > 100 µM (inactive)
SK-MEL-28
  GI50: > 100 µM (inactive)
UACC-257
  GI50: > 100 µM (inactive)
HT-29
  GI50: > 100 µM (inactive)
SK-MEL-5
  GI50: 46.3 µM (inactive)
OVCAR-5
  GI50: > 100 µM (inactive)
LOX IMVI
  GI50: 76 µM (inactive)
CCRF-CEM
  GI50: > 10 µM (inactive)
TK-10
  GI50: > 100 µM (inactive)
ACHN
  GI50: > 100 µM (inactive)
DU-145
  GI50: > 100 µM (inactive)
RXF 393
  GI50: > 100 µM (inactive)
UO-31
  GI50: > 100 µM (inactive)
Malme-3M
  GI50: > 100 µM (inactive)

## CNC(C)C(O)c1ccc2oc3cc(=O)c4ccccc4c-3nc2c1 (stereo not given)
OVCAR-4
  GI50: 17.3 µM (inactive)
T47D
  GI50: 31.6 µM (inactive)
RPMI-8226
  GI50: 18.9 µM (inactive)
HCT-116
  GI50: 5.24 µM (inactive)
SK-OV-3
  GI50: 40.1 µM (inactive)
SF-268
  GI50: 27.2 µM (inactive)
OVCAR-8
  GI50: 6.15 µM (inactive)
MOLT-4
  GI50: 19.4 µM (inactive)
HOP-62
  GI50: 5.82 µM (inactive)
EKVX
  GI50: 40 µM (inactive)
SNB-19
  GI50: 6.44 µM (inactive)
KM12
  GI50: 9.84 µM (inactive)
CAKI-1
  GI50: 16.1 µM (inactive)
HCT-15
  GI50: 4.83 µM
NCI-H522
  GI50: 13.3 µM (inactive)
NCI/ADR-RES
  GI50: 14.4 µM (inactive)
HOP-92
  GI50: 94.6 µM (inactive)
SN12C
  GI50: 10.6 µM (inactive)
UACC-62
  GI50: 3.82 µM (inactive)
U-251
  GI50: 4.34 µM (inactive)
A549
  GI50: 5.13 µM (inactive)
NCI-H460
  GI50: 4.67 µM (inactive)
SW-620
  GI50: 6.35 µM (inactive)
MDA-MB-231
  GI50: 45.5 µM (inactive)
MDA-MB-435
  GI50: 1.97 µM (inactive)
MCF7
  GI50: 18.9 µM (inactive)
OVCAR-3
  GI50: 11.9 µM (inactive)
HCC 2998
  GI50: 27.9 µM (inactive)
HL-60
  GI50: 21.8 µM (inactive)
PC-3
  GI50: 32.6 µM (inactive)
A498
  GI50: 24 µM (inactive)
SF-295
  GI50: 4.59 µM (inactive)
SF-539
  GI50: 1.45 µM (inactive)
Hs-578T
  GI50: 2.26 µM (inactive)
IGROV-1
  GI50: 31.5 µM (inactive)
SK-MEL-2
  GI50: 4.69 µM (inactive)
NCI-H23
  GI50: 4.3 µM (inactive)
K562
  GI50: 2.72 µM (inactive)
M14
  GI50: 4.65 µM (inactive)
BT-549
  GI50: 7.76 µM (inactive)
COLO 205
  GI50: 35.9 µM (inactive)
SK-MEL-28
  GI50: 11.5 µM (inactive)
UACC-257
  GI50: 5.37 µM (inactive)
HT-29
  GI50: 36.3 µM (inactive)
SK-MEL-5
  GI50: 2.48 µM (inactive)
OVCAR-5
  GI50: 32.5 µM (inactive)
LOX IMVI
  GI50: 4.1 µM (inactive)
CCRF-CEM
  GI50: 5.52 µM (inactive)
TK-10
  GI50: 38.7 µM (inactive)
ACHN
  GI50: 6.25 µM (inactive)
DU-145
  GI50: 5.31 µM (inactive)
RXF 393
  GI50: 25.8 µM (inactive)
UO-31
  GI50: 13.8 µM (inactive)
Malme-3M
  GI50: 5.64 µM (inactive)

## CC(C)(C)C(=O)N1CCN(C=O)C1=S
OVCAR-4
  GI50: > 100 µM (inactive)
T47D
  GI50: 34 µM (inactive)
RPMI-8226
  GI50: 24.8 µM (inactive)
HCT-116
  GI50: > 100 µM (inactive)
SK-OV-3
  GI50: > 100 µM (inactive)
SF-268
  GI50: 80.4 µM (inactive)
OVCAR-8
  GI50: 36.5 µM (inactive)
MOLT-4
  GI50: 61.5 µM (inactive)
HOP-62
  GI50: > 100 µM (inactive)
EKVX
  GI50: > 100 µM (inactive)
SNB-19
  GI50: > 100 µM (inactive)
KM12
  GI50: 75.9 µM (inactive)
CAKI-1
  GI50: 34.6 µM (inactive)
HCT-15
  GI50: 53.2 µM
NCI-H522
  GI50: 26.8 µM (inactive)
NCI/ADR-RES
  GI50: > 100 µM (inactive)
HOP-92
  GI50: 16.8 µM (inactive)
NCI-H226
  GI50: > 100 µM (inactive)
SN12C
  GI50: 36.8 µM (inactive)
UACC-62
  GI50: 32.1 µM (inactive)
U-251
  GI50: 80.7 µM (inactive)
A549
  GI50: 27.5 µM (inactive)
NCI-H460
  GI50: > 100 µM (inactive)
SW-620
  GI50: 44.9 µM (inactive)
MDA-MB-231
  GI50: > 100 µM (inactive)
MDA-MB-435
  GI50: 35.9 µM (inactive)
MCF7
  GI50: 15.6 µM (inactive)
OVCAR-3
  GI50: 38.2 µM (inactive)
HCC 2998
  GI50: 64.9 µM (inactive)
HL-60
  GI50: 47.3 µM (inactive)
PC-3
  GI50: > 100 µM (inactive)
A498
  GI50: 18.7 µM (inactive)
SF-295
  GI50: > 100 µM (inactive)
SF-539
  GI50: > 100 µM (inactive)
786-0
  GI50: 36.7 µM (inactive)
Hs-578T
  GI50: 58.5 µM (inactive)
IGROV-1
  GI50: 47.3 µM (inactive)
SK-MEL-2
  GI50: > 100 µM (inactive)
NCI-H23
  GI50: 77.3 µM (inactive)
K562
  GI50: 35.2 µM (inactive)
M14
  GI50: 31 µM (inactive)
BT-549
  GI50: 46.2 µM (inactive)
COLO 205
  GI50: > 100 µM (inactive)
SK-MEL-28
  GI50: 50.4 µM (inactive)
UACC-257
  GI50: 62.7 µM (inactive)
HT-29
  GI50: > 100 µM (inactive)
OVCAR-5
  GI50: > 100 µM (inactive)
LOX IMVI
  GI50: 34.2 µM (inactive)
CCRF-CEM
  GI50: 29.8 µM (inactive)
TK-10
  GI50: 92 µM (inactive)
SNB-75
  GI50: 30.1 µM (inactive)
ACHN
  GI50: 57.9 µM (inactive)
DU-145
  GI50: 33.5 µM (inactive)
RXF 393
  GI50: 24.6 µM (inactive)
UO-31
  GI50: 0.0693 µM (active)
Malme-3M
  GI50: 61.4 µM (inactive)
